The record followed here is a melting point compilation (Tetko et al.; mined from patent text by program, amines drawn as free bases though some values may be those of a salt).

For `CCCc1c(C(=O)OCC)c2c3c(ccc2n1C)OC1c2ccc(OC)cc2CCN1C3` (stereo unspecified), the melting point is 150 to 151 °C. Under `CCCc1nc2cc(C(=O)c3ccccc3)ccc2n1Cc1ccc(C(=O)OCC)cc1` stands 126 to 128 °C.

`Cc1cccc(C)c1CNc1cc(Br)cc2c1nc(C)n2COCc1ccccc1` came in with a melting point of 147 to 148 °C. The same measure for `CC(C)NS(=O)(=O)Cc1ccc(N)cc1`: 105 to 107 °C. Under `Oc1ccc(Cn2c(S)nc3ccccc32)cc1` stands 216 to 220 °C.

`O=c1[nH]c2sc3c(F)cccc3c2[nH]c1=O` displayed a melting point of more than 35 °C. As for `Cc1noc2cc(F)c(-n3c(=O)cc(C(F)(F)F)[nH]c3=O)cc12`, the melting point fell in the range of 235 to 237 °C.

`O=C(NCCO)/C(=C/c1ccc(OC(F)F)cc1)NC(=O)c1ccc(OCCc2ccccc2)cc1` yielded a melting point of 155 to 157 °C.

For `c1ccc2cc(Cn3c(-c4ccc5c(c4)OCO5)nc4ccccc43)ccc2c1`, the melting point is 180 °C. Under `COc1ccc(N2CCN(c3c(C)c(C)c4c(c3C)CC(C)(CN3CCCC3)O4)CC2)cc1` (stereo unspecified) stands 129 to 132 °C; under `CCOC(=O)CCCN(C(=O)c1ccc(F)cc1)c1ccccc1-c1ccccc1`, 83 to 84 °C; under `Cc1cc2ccccc2n1Nc1ccncc1F`, 157 to 158 °C. `O=C(OCc1ccccc1)c1cccc(OCc2ccccc2)c1[N+](=O)[O-]` showed a melting point of 81.7 to 84.7 °C.

As to `CCCc1c(CSc2nccc(OCC(=O)OCC)n2)ccc(C(C)=O)c1O`, the melting point fell in the range of 112 to 117 °C. The same measure for `COc1cc(/C=C/C(=O)Nc2ccccc2C(=O)O)ccc1OC1CCCCC1`: 90 to 92 °C; for `COC(=O)COCCOc1ccc([N+](=O)[O-])cc1`: 96 to 97.8 °C. As to `CC(C)(C)C(=O)Nc1ccc2oc3c(c2c1)CCC3`, the melting point lay in the range of 188 to 190 °C. Under `Cc1cc(=O)n2c3c(cc(C(O)(C(F)(F)F)C(F)(F)F)cc13)CCC2` stands 295 to 296 °C; under `COc1cc2c(c(C)c1OC)CC(C)CC2=O` (stereo unspecified), 106 to 108 °C; under `Nc1ccc(-c2nc3c(s2)C(=O)c2ccccc2C3=O)o1`, more than 260 °C.

`Cc1cc(COc2ccc(C(=O)NC[C@@H](C(=O)NO)N3CCN(S(=O)(=O)C(C)C)CC3)cc2)c2ccccc2n1` returned a melting point of 188 °C.

Turning to `Clc1ccc(Sc2ncccn2)cc1`, the melting point lay within 68 to 70 °C. The same measure for `CCSc1ccc(-c2ccccn2)c2c1C(=O)CC(C)C2` (stereo unspecified): 120 to 122 °C; for `CCOc1ccnc(Cl)n1`: 30 to 31 °C; for `O=C(NCc1ccccc1C(F)(F)F)c1ccc2cnccc2n1`: 125 to 127 °C. For the compound `CCOc1cc2c(cc1OCC)-c1c(C#N)sc(=O)n1CC2`, the melting point was 172 to 174 °C. The same measure for `c1ccc(CP(Cc2ccccc2)Cc2ccccc2-c2ccccc2CP(Cc2ccccc2)Cc2ccccc2)cc1`: 163 to 167 °C; for `CCOC(=O)COc1ccc(SCc2cccc3nc(-c4ccc(C(F)(F)F)cc4)sc23)cc1C`: 193 to 196 °C; for `CC(C)CC(CS)C(=O)NCCCCCCCC(=O)N[C@@H](CCCNC(=N)N)C(=O)O` (stereo partly specified): 102 to 130 °C. The same measure for `CS(=O)(=O)N(Cc1cccnc1)c1ccc(F)cc1F`: 132 to 135 °C. The same measure for `CNc1c(F)cccc1C(C)=O`: 26 to 28 °C. With `Cn1c(=O)cc(CN2CCC(c3c[nH]c4ccccc34)CC2)c2ccccc21`, the melting point is 228 to 229 °C. The same measure for `COc1ccc(Cc2cccc(C(O)(C3=NCCCN3)c3ccccc3)c2)cc1` (stereo unspecified): 92 °C; for `Cc1oc(-c2ccc(C(F)(F)F)cc2)nc1CCOc1ccc(CN(O)C(N)=O)cc1F`: 144 to 146 °C. The same measure for `Cc1ccc(CCC(C)(C)NCC(O)c2cc3ccccc3o2)cc1` (stereo unspecified): 121 to 122 °C; for `NC(=O)c1cccc(CCN2CC=C(c3c[nH]c(-c4ccc(F)cc4)c3-c3ccncc3)CC2)c1`: 185 to 188 °C.

As to `CC1(C)Oc2c(N)c(Cl)cc(Cl)c2C1=O`, the melting point was in the range of 168 to 170 °C. As to `COC(=O)C(=C(/C)c1ccc(OC2CCCC2)c(OC)c1)/C(=C\c1ccccc1)C(N)=O`, the melting point lay within 133 to 134 °C. The same measure for `CC(C)(C#N)c1ccc(C(=O)Nc2cn3cc(Cl)ccc3n2)cc1`: 248 to 250 °C; for `Cc1cc(C)n(C)c(=O)n1`: 58 to 60 °C.

Consider `CCCc1cnc2c(c1)C(=O)N1C2=NC(=O)C1(C)C(C)C` (stereo unspecified), for which the melting point came out at 116 °C. With `CC(=O)c1ccc(N)c(C#N)c1Cl`, the melting point was in the range of 189 to 193 °C. Under `CCCCOc1ccc2cc(C(=O)O)ccc2c1` stands 175 to 180 °C; under `COC(=O)[C@@H]1OC(c2ccc(O)c(OC)c2)O[C@H]1C(=O)OC`, 88 to 90 °C; under `CN1CCc2cc(O)c(O)cc2C1C1(c2ccc3ccccc3c2)CCC1` (stereo unspecified), 150 to 153 °C. Under `OCc1cnc2c(F)c(F)c(F)cc2c1-c1cccs1` stands 126 to 128 °C; under `O=c1[nH]c2cc(Cl)ccc2n1C1CCN(Cc2cncc(-c3ccccc3)c2)CC1`, 229 to 231 °C. Under `Cc1ccc([N+](=O)[O-])cc1Nc1ccc(C(F)(F)F)cn1` stands 103 to 105 °C. As to `Cc1c(Cl)cccc1S(=O)(=O)Nc1nc(CC(=O)N(C)C)cs1`, the melting point was 84 °C.

`CCCCCCCCCCc1ccc(NC(=O)c2cc(Cl)cc(Cl)c2O)cc1` registered a melting point of 90 to 91 °C. With `O=S1(=O)N=CN(C2CC2)c2c(Cl)cccc21`, the melting point lay within 159 to 160 °C. Under `O=C1CCCc2c(Cl)cccc2-c2ccccc21` stands 118 °C; under `CCCCc1nc(SCC)c2ccccc2c1Cc1ccc(C(=O)OC)cc1`, 70 °C. Take `O=S(=O)(Nc1cc(-c2ncc(C(F)(F)F)cc2Cl)ccc1Cl)c1ccc(Cl)cc1`: the melting point fell in the range of 156 to 157 °C. The same measure for `C=CCOC(=O)c1ccc(COC(=O)c2ccc(OC(C)C)c(C(C)(C)C)c2)cc1`: 63 to 64 °C; for `CC(C)(C)C(=O)c1c[nH]c2ncc(-c3ccc(N4CCN(S(C)(=O)=O)CC4)cc3)nc12`: 288 to 290 °C. The same measure for `COc1cc2cnnc(N3CCC4(CC3)OCCCO4)c2cc1OC`: 194 to 196 °C; for `O=C(NCC1CCN(CC2(C(=O)O)CCCC2)CC1)N1C(=O)C2(CCCC2)c2ccccc21`: 188 °C; for `NS(=O)(=O)c1ccc(-c2noc(-c3cnn4c(C(F)(F)F)cc(-c5ccc(Cl)cc5)nc34)n2)cc1`: 296 °C. Under `Nc1ncc(Oc2ccc(Cl)cc2)c(N2CCN(C=O)CC2)n1` stands 159 to 161 °C. Take `CCC(=O)Oc1ccc(N=c2scc(-c3ccc(Cl)c(S(=O)(=O)N(C)C)c3)n2C)cc1`: the melting point lay in the range of 155 to 159 °C. The same measure for `N#Cc1c(N2CCc3ccccc3CC2)nc[nH]c1=O`: 139 to 140 °C.

Consider `CN(C(=O)OC[C@@]1(C)Cn2cc([N+](=O)[O-])nc2O1)c1ccc(OC(F)(F)F)cc1`, for which the melting point lay within 144 to 145 °C. Under `CC(Oc1c(-c2ccc(S(C)(=O)=O)cc2)cnn(CC(F)(F)F)c1=O)c1ccc(F)cc1` (stereo unspecified) stands 133 to 135 °C.

Take `CC(C)c1n[nH]c2c(NCc3ccccc3)nc(NCCN)nc12`: the melting point was 145 to 147 °C. `O=C(O)CCC(=O)c1ccc(-c2ccc(Cl)cc2F)cc1` showed a melting point of 127 to 129 °C. The same measure for `Clc1cc(Cl)cc(-c2n[nH]cc2Cl)c1`: 192 °C; for `Oc1ncnc2cnc(NC3CC3)nc12`: more than 240 °C; for `S=C(Nc1ccc(Cl)cc1)NC1CCCCC1`: 179 to 180 °C. In turn, `CC(=O)NC(Cc1c[nH]c2ccccc12)C(=O)C=Cc1cc(C(F)(F)F)cc(C(F)(F)F)c1` (stereo unspecified) gave a melting point of 68 to 70 °C. Under `COC(=O)NNC(=S)CC1CCCCO1` (stereo unspecified) stands 110 °C; under `CC(C)OCc1nc(N)c2nccnc2n1`, 139 to 141 °C.

In turn, `CC(C)(CCNS(=O)(=O)c1ccc(Cl)cc1)CC(=O)O` yielded a melting point of 107 to 108 °C.

`CCOC(=O)C1=C(C)NC(C#N)=C(C(=O)OCC)C1c1cccc([N+](=O)[O-])c1` (stereo unspecified) registered a melting point of 174 to 177 °C. Under `CCCc1cc(C=O)c(O)cc1O` stands 92.8 to 93.6 °C. The same measure for `CCCCNCC(O)COc1ccc(-c2nc(C(F)(F)F)c[nH]2)cc1` (stereo unspecified): 151 to 154 °C. Under `CC(=O)N1CCC(=O)NCc2ccccc21` stands 236 to 239 °C; under `CC(=O)CC(C)c1ccc(-c2ccccc2F)cc1` (stereo unspecified), 60 to 61 °C; under `O=C1CCC(=O)C1C(=O)CCc1ccc2c(c1)OCO2`, 93 to 94 °C.

`C=CCSC(=NC(=O)OC)NC(=O)NC(C)C` yielded a melting point of 103 to 106 °C. In turn, `CCCCCCCCCCCCCCCCCCCCOC(=O)Cl` had a melting point of 33 to 34 °C. The same measure for `CNC(=S)NS(=O)(=O)c1cc(CCNC(=O)/C=C/c2cccs2)ccc1OCCc1ccccc1`: 74 °C. The same measure for `Cc1cccc(Cl)c1NC(=O)n1nc(Oc2cccc(C(F)(F)F)c2)cc1C`: 55 to 58 °C; for `Cc1cc(-n2ccnc2)c2cccc(OCc3c(Cl)ccc(S(=O)(=O)N4CCC[C@H]4C(=O)NCCc4cccnc4)c3Cl)c2n1`: 117 °C. The same measure for `CCOC(=O)C1=C[C@H](NC(=O)OC(C)(C)C)[C@@H](NC(C)=O)[C@@H]2OC(C)(C)O[C@H]12`: 174 to 175 °C.

Regarding `CCOC(=O)C1(Cc2cccc(C)c2Br)CN(Cc2ccccc2)CCC1=O` (stereo unspecified), the melting point is 60 to 61 °C.

For `Cc1cc(C#N)cn2cc(-c3cccc(-c4ccc(C#N)cc4)c3)nc12`, the melting point was in the range of 236 to 238 °C.

`CCOC(=O)c1cc(=O)c2c(ccc3nc(C(=O)OC)cc(O)c32)o1` gave a melting point of 247 to 248 °C. Turning to `CC(=O)OCc1nnc(N)s1`, the melting point fell in the range of 191 to 192 °C. The same measure for `NS(=O)(=O)c1cc(C(=O)O)cc([N+](=O)[O-])c1OCC(F)(F)F`: 195 to 197 °C; for `OCC1CCCc2c1ncn2C(c1ccccc1)(c1ccccc1)c1ccccc1` (stereo unspecified): 168 to 170 °C.
